Source: publication PMC8380238, “Structure-based virtual screening of CYP1A1 inhibitors: towards rapid tier-one assessment of potential developmental toxicants” (Archives of Toxicology, 2021)
Like-named read-outs stand apart in the source and are kept apart here.

Tests used:
[1] = molecular target: T1, human recombinant CYP1A1 (rCYP1A1) (Homo sapiens, UniProt P04798); assay: CYP1A1 activity assay: inhibition of CEC metabolism (IC50)
T1 sequence (P04798 1-512): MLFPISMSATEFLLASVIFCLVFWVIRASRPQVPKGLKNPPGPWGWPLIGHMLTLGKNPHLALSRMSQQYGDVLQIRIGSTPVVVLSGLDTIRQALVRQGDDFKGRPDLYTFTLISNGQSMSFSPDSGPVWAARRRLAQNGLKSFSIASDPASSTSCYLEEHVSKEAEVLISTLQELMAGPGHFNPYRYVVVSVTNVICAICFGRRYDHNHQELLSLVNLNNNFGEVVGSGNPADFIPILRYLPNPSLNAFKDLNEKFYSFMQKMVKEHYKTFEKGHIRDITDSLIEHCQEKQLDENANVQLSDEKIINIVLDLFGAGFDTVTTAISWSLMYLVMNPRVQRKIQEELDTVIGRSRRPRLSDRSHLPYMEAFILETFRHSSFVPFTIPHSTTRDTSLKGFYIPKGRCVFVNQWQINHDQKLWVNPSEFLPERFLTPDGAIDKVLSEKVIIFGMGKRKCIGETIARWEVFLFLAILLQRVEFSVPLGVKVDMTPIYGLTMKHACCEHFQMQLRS

[2] = molecular target: T1, human recombinant CYP1A1 (rCYP1A1); assay: CYP1A1 activity assay repeated at six CEC concentrations (Ki, α, mode of inhibition)
[3] = molecular target: T1, human recombinant CYP1A1 (rCYP1A1)
CYP1A1 [4] = conditions: cited from earlier work
[5] = molecular target: T1, human recombinant CYP1A1 (rCYP1A1); conditions: recombinant enzyme
human CYP1A1 = conditions: cited from earlier work
CYP1A1 [6] = conditions: cited from earlier work; remark: listed apart in the source
[7] = CYP1A1 IC50 (range of colour key, Fig. 5a)
[8] = CYP1A1 Ki (range of colour key, Fig. 5b)

| SMILES | IC50 [1, 7] [µM] | IC50 ([1]; IC50) [µM] | α (degree to which the binding of inhibitor changes the affinity of the enzyme for substrate) [2] | Ki [2, 8] [µM] | Ki ([2]; Ki) [µM] | MOI (mode of inhibition) [3] | further results |
| --- | --- | --- | --- | --- | --- | --- | --- |
| CC(=O)[C@H]1CC[C@H]2[C@@H]3CCC4=CC(=O)CC[C@]4(C)[C@H]3CC[C@]12C [Progesterone, reference compound] | 10 to 100 | 41 | 4.3 | 15 to 20 | 20 | Competitive | CYP1A1 substrate category (CYP1A1 [4]): weak |
| C[C@H]1CCCC(=O)CCC/C=C/c2cc(O)cc(O)c2C(=O)O1 [Zearalenone] | – | 0.7 | 3.5 | – | 0.66 | Mixed | – |
| C[C@]12CC[C@@H]3c4ccc(O)cc4CC[C@H]3[C@@H]1CC[C@@H]2O [Estradiol, reference compound] | 10 to 100 | 43 | 4.3 | 10 to 15 | 13 | Competitive | CYP1A1 substrate category (CYP1A1 [4]): strong |
| CC(C)(c1ccc(O)cc1)c1ccc(O)cc1 [Bisphenol A] | 1 to 10 | 2.4 | 9.1 | – | 0.53 | Competitive | – |
| CCOC(=O)c1ccccc1C(=O)OCC [Diethyl phthalate] | 10 to 100 | 38 | – | 10 to 15 | 10 | Competitive | – |
| C[C@]12CC[C@H]3[C@@H](CCC4=CC(=O)CC[C@@]43C)[C@@H]1CC[C@@H]2O [Testosterone] | – | – | – | – | – | – | CYP1A1 substrate category (CYP1A1 [4]): weak |
| O=P1(N(CCCl)CCCl)NCCCO1 (stereo not shown) [Cyclophosphamide, reference compound] | ≥ 1000 | – | – | – | – | – | IC50 [5]: ∞ |
| CCCCOC(=O)c1ccccc1C(=O)OCCCC [Dibutyl phthalate] | 10 to 100 | 10 | 13 | 1 to 10 | 1.6 | Competitive | – |
| O=c1ccc2nc3ccc(OCc4ccccc4)cc3oc-2c1 [BzRes, resorufin benzyl ether] | – | – | – | – | – | – | activity of human CYP1A1 on the fluorometric substrate (human CYP1A1; ref Stresser et al. [2002]): 0.457 pmol/min/pmol CYP1A1 |
| CCOc1ccc2cc(C#N)c(=O)oc2c1 [CEC, 3-cyano-7-ethoxycoumarin] | – | – | – | – | – | – | activity of human CYP1A1 on the fluorometric substrate (human CYP1A1): 40.2 pmol/min/pmol CYP1A1 |
| CCCCc1oc2ccccc2c1C(=O)c1cc(I)c(OCCNCC)c(I)c1 [DEA, desethylamiodarone] | – | – | – | – | – | – | Ki (CYP1A1 [6]): 1.5 µM; α (CYP1A1 [6]): 5.7 |
| CC(O)(CS(=O)(=O)c1ccc(F)cc1)C(=O)Nc1ccc(C#N)c(C(F)(F)F)c1 (stereo not shown) [Bicalutamide, reference compound] | 10 to 100 | 14 | – | 1 to 10 | 6.6 | Mixed | – |
| COc1ccc2[nH]cc(CCNC(C)=O)c2c1 [Melatonin] | – | – | – | – | – | – | CYP1A1 substrate category (CYP1A1 [4]): strong |
| C[C@]12CC[C@@H]3c4ccc(O)cc4CC[C@H]3[C@@H]1C[C@@H](O)[C@@H]2O [Estriol] | ≥ 1000 | – | – | – | – | – | IC50 [5]: ∞ |
| CCCOC(=O)c1ccc(O)cc1 [Propyl paraben] | 10 to 100 | 39 | 6.2 | 15 to 20 | 17 | Competitive | – |
